Experiments:
[1] = system: M. luteus Q24; experiment: Inhibition by potential prebiotics spotted on a Q24 lawn; assay type: cell-based, Streptococcus salivarius; conditions: 20 μL spots, 24 hours at 37° C.; for Suitable to be used in Q24 containing serum/product?: 100% to 0.3% (oils at 100% only); for inhibitory concentration vs Blis Q24: 100% to 0.3%
Experimental: CABK12 agar plates were split into segments of 6 and […] suspension of M. luteus […] raw ingredient P3. Each of the aqueous potential prebiotic substances to be screened were serially diluted in a range of concentrations from 100% to 0.3% using sterile distilled water. Oil based substances were tested at 100% only. 20 μL of each concentration, of each substance were pipetted into a spot onto one segment of the […]12 agar plate and was incubated for 24 hours at 37° C. 5% CO2 in air.

[2] = system: skin commensals S. epidermidis #4, S. epidermidis E30, S. hominis ATCC 27844; experiment: Prebiotic activity against skin commensals (growth); assay type: cell-based; conditions: FIG. 14
Experimental: The same method was used as above for Blis Q24 ingredient except the suspensions with optical density of 0.125 were prepared for each of the 3 selected skin commensals.
The skin commensals selected were: • S. epidermidis #4—Sensitive to Q24 inhibition • S. epidermidis E30—Resistant to Q24 inhibition • S. hominis ATCC 27844—Mixed resistance condition dependent

[3] = system: EpiDerm tissues; experiment: EpiDerm safety experiment, cytokine levels day 0 and day 4; assay type: cell-based, human; conditions: Blis Q24 1×10^8 CFU/ml or vitamin C 50 μg/mL
Experimental: Upon receipt, the final development of the immature EpiDerm (EPI-201-4D; MatTekCorporation, Ashland, MA, USA) tissues was completed following the manufacturer's instructions. In brief, the tissues were transferred from the agarose-containing gel on which they were shipped to cell culture plates containing pre-warmed differentiation medium (EPI-201-DM). They were then maintained at 37° C. in a 5% CO2 atmosphere for 4 days, with 2 or […] changes to fresh differentiation medium during that period. Finally, the fully developed EpiDerm tissues were transferred to fresh plates containing standard culture medium (EPI-100-NMM) for use in each experiment.
(§1) The maturation of 36 immature EpiDerm tissues was performed as described above. The fully differentiated tissues were numbered from 1-36 and were randomly assigned to receive one of the treatments shown in Table 3. This was done such that each of the 6 combinations of main treatment (PBS, Q24 or vitamin C) and 0.5% SDS exposure treatment (±0.5% SDS) was randomly represented on each of five 6-well cell culture plates. The remaining 6 tissues, which were destined for histology or else to receive 5% SDS, were grouped together on the sixth cell culture plate. Following maturation, the 36 tissues were cultured in the assay medium for 24 h at 37° C. in a 5% CO2 atmosphere, after which the baseline (day 0) conditioned media samples were collected and stored frozen at −80° C. for cytokine measurement. […] The viabilities of the other 33 tissues were assessed using the MTT viability assay.
(§2) For quantification of IL-1β, IFN-α2, IFN-γ, TNF-α, MCP-1 (CCL2), IL-6, IL-8 (CXCL8), IL-10, IL-12p70, IL-17A, 1L-18, IL-23, and IL-33, bead-based multiplex LEGENDplex™ analysis(LEGENDplex™ Human Inflammation Panel 1 (13-plea); BioLegend, San Diego, CA, USA) was used according to the manufacturer's instructions. The relevance of each of the measured cytokines is described in Table 4. […] Data were analysed via Legendplex V8.0 software (BioLegend) and specified as pg/mL.

[4] = system: EpiDerm tissues; experiment: EpiDerm anti-inflammatory effect, cytokine release in response to 0.5% SDS; assay type: cell-based, human; conditions: pre-treatment, day 5 vs day 4
Experimental: as §1, §2

[5] = system: Blis Q24; experiment: Effect of prebiotics on the growth of Blis Q24 in M17 broth; assay type: cell-based, Micrococcus luteus; conditions: 5% prebiotic in M17 broth
Experimental: A batch of M17 broth (Difco #218561) was made, excluding the lactose solution, by following the manufacturer's instructions. 50 ml of broth was dispensed into sterile 100 ml Schott bottles and 2.5 g (5%) of each potential prebiotic substance was added and mixed well using a magnetic stirrer and stir plate. The mixtures were autoclaved at 110° C. for 10 minutes and allowed to cool. The suspensions of the prebiotic candidates were prewarmed to 40° C. in order to allow for increased homogenisation of any oil-based components prior to dispensing into the wells. 2 ml of each suspension and an M17 only (control) were pipetted into a sterile 24 well tissue culture plate. A suspension of […] raw ingredient P3 was made in PBS and adjusted to an optical density of 0.125. 100 μl of the suspension was pipetted into each well. Once the suspension was added each well was mixed by aspirating and dispensing the solution 5 times with a 1 ml pipette. Each sample was enumerated at time points 0, 3, 6, 15, 26 and 34 hours using the following method. […] The number of colonies in each spot were then counted using an electronic colony counter and average to give the final result. […] Olive squalene was selected as one of the preferred prebiotics with 3 others that were analysed in combination with olive squalene and compared to the results of the prebiotic candidates alone (FIG. 13).

| Molecule | Suitable to be used in Q24 containing serum/product? [1] | other results |
| --- | --- | --- |
| NC(=O)NC1NC(=O)NC1=O (stereo not drawn) [Allantoin] | Yes |  |
| CC(O)C(=O)O (stereo not drawn) [Lactic acid (LA), Lactic acid] | No | inhibitory concentration vs Blis Q24 [1]: > 2.5% |
| NC(=O)c1cccnc1 [Niacinamide] | Yes |  |
| CC(C)=CCC/C(C)=C/CC/C(C)=C/CC/C=C(\C)CC/C=C(\C)CCC=C(C)C [Olive Squalene] | Yes | growth of skin commensals compared to control media [2]: do not offer any advantage |
| CC1=C(/C=C/C(C)=C/C=C/C(C)=C/CO)C(C)(C)CCC1 [Retinol (Vitamin A), Retinol] | Yes |  |
| O=C(O)c1ccccc1O [Salicylic acid (SA), Salicylic acid] | No | inhibitory concentration vs Blis Q24 [1]: > 5% |
| O=C1O[C@H]([C@@H](O)CO)C(O)=C1O [Vitamin C (Ascorbic acid), Ascorbic acid] | Yes | IL-6 levels, day 4 vs day 0 ([3]; daily for 4 days): slight but significant increase; IL-8 levels, day 4 vs day 0 ([3]; daily for 4 days): unchanged; IL-18 levels, day 4 vs day 0 ([3]; no significant differences): trend for lower values; IL-6 released in response to 0.5% SDS [4]: slight increase |
| Cc1c(C)c2c(c(C)c1O)CC[C@@](C)(CCC[C@H](C)CCC[C@H](C)CCCC(C)C)O2 [Vitamin E, D Alpha Tocopherol 1000IU, D Alpha Tocopherol] | Yes |  |
| OC[C@@H](O)[C@H](O)[C@@H](O)CO [Xylitol] | Yes | growth of Q24 compared to the control [5]: detrimental to the live Q24 cell count at 24 hours |
| Hyaluronic acid | Yes |  |

Source: US20240156718A1, “TOPICAL COMPOSITION AND USE THEREOF” (BLIS TECHNOLOGIES LIMITED, priority 2021, published 2024)
